Laboratory results from PubChem BioAssay (NCI).
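All cell lines were grown in 96-well plates and treated with compound for 48 hours. Definition used: TGI = concentration required for complete inhibition of growth.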

Key:
Assay in all cases: growth of human tumour cells (NCI), 48 h
[1] = system: 786-0 renal
[2] = system: A498 renal
[3] = system: A549 NSCLC
[4] = system: ACHN renal
[5] = system: BT-549 breast
[6] = system: CAKI-1 renal
[7] = system: CCRF-CEM leukemia
[8] = system: COLO 205 colon
[9] = system: DU-145 prostate
[10] = system: EKVX NSCLC
[11] = system: HCC-2998 colon
[12] = system: HCT-116 colon
[13] = system: HCT-15 colon
[14] = system: HOP-62 NSCLC
[15] = system: HOP-92 NSCLC
[16] = system: HS 578T breast
[17] = system: HT29 colon
[18] = system: K-562 leukemia
[19] = system: KM12 colon
[20] = system: LOX IMVI melanoma
[21] = system: M14 melanoma
[22] = system: MALME-3M melanoma
[23] = system: MCF7 breast
[24] = system: MDA-MB-231 breast
[25] = system: MDA-MB-435
[26] = system: MDA-N
[27] = system: MOLT-4 leukemia
[28] = system: NCI-H226 lung
[29] = system: NCI-H23 lung
[30] = system: NCI-H460 lung
[31] = system: NCI-H522 lung
[32] = system: NCI/ADR-RES ovarian
[33] = system: OVCAR-3 ovarian
[34] = system: OVCAR-4 ovarian
[35] = system: OVCAR-5 ovarian
[36] = system: OVCAR-8 ovarian
[37] = system: PC-3 prostate
[38] = system: RPMI-8226 leukemia
[39] = system: RXF 393 renal
[40] = system: SF-268 CNS
[41] = system: SF-295 CNS
[42] = system: SF-539 CNS
[43] = system: SK-MEL-2 melanoma
[44] = system: SK-MEL-28 melanoma
[45] = system: SK-MEL-5 melanoma
[46] = system: SK-OV-3 ovarian
[47] = system: SN12C renal
[48] = system: SNB-19 CNS
[49] = system: SNB-75 CNS
[50] = system: SW-620 colon
[51] = system: T-47D breast
[52] = system: TK-10 renal
[53] = system: U251 CNS
[54] = system: UACC-257 melanoma
[55] = system: UACC-62 melanoma
[56] = system: UO-31 renal
[57] = system: HL-60(TB) leukemia
[58] = system: IGROV1 ovarian

Question: How did the TGI [1] turn out when `Clc1ccc(Nc2nn3c(CCCCCCCCc4nnc5sc(Nc6ccc(Cl)cc6)nn45)nnc3s2)cc1` was run?
Answer: The TGI was > 100 µM.

Question: And the TGI [2]?
Answer: Its TGI is > 100 µM.

Question: What about the TGI [3] of the same compound?
Answer: Its TGI is > 100 µM.

Question: And the TGI [4]?
Answer: Its TGI is > 100 µM.

Question: And the TGI [5]?
Answer: The TGI was > 100 µM.

Question: And the TGI [6]?
Answer: The TGI was > 100 µM.

Question: And the TGI [7]?
Answer: Its TGI is > 100 µM.

Question: What about the TGI [8] of the same compound?
Answer: Its TGI is > 100 µM.

Question: And the TGI [9]?
Answer: The TGI was > 100 µM.

Question: And the TGI [10]?
Answer: The TGI was > 100 µM.

Question: And the TGI [11]?
Answer: The TGI was > 100 µM.

Question: What about the TGI [12] of the same compound?
Answer: The TGI was > 100 µM.

Question: What about the TGI [13] of the same compound?
Answer: The TGI was > 100 µM.

Question: And the TGI [14]?
Answer: Its TGI is > 100 µM.

Question: What about the TGI [15] of the same compound?
Answer: Its TGI is > 100 µM.

Question: And the TGI [16]?
Answer: Its TGI is > 100 µM.

Question: What about the TGI [17] of the same compound?
Answer: The TGI was > 100 µM.

Question: What about the TGI [18] of the same compound?
Answer: The TGI was > 100 µM.

Question: What about the TGI [19] of the same compound?
Answer: Its TGI is > 100 µM.

Question: And the TGI [20]?
Answer: The TGI was > 100 µM.

Question: And the TGI [21]?
Answer: Its TGI is > 100 µM.

Question: And the TGI [22]?
Answer: The TGI was > 100 µM.

Question: And the TGI [23]?
Answer: The TGI was > 100 µM.

Question: And the TGI [24]?
Answer: The TGI was > 100 µM.

Question: And the TGI [25]?
Answer: Its TGI is > 100 µM.

Question: What about the TGI [26] of the same compound?
Answer: Its TGI is > 100 µM.

Question: And the TGI [27]?
Answer: The TGI was > 100 µM.

Question: What about the TGI [28] of the same compound?
Answer: The TGI was > 100 µM.

Question: What about the TGI [29] of the same compound?
Answer: Its TGI is > 100 µM.

Question: And the TGI [30]?
Answer: The TGI was > 100 µM.

Question: What about the TGI [31] of the same compound?
Answer: Its TGI is > 100 µM.

Question: And the TGI [32]?
Answer: The TGI was > 100 µM.

Question: And the TGI [33]?
Answer: Its TGI is > 100 µM.

Question: What about the TGI [34] of the same compound?
Answer: The TGI was > 100 µM.

Question: And the TGI [35]?
Answer: Its TGI is > 100 µM.

Question: What about the TGI [36] of the same compound?
Answer: Its TGI is > 100 µM.

Question: What about the TGI [37] of the same compound?
Answer: Its TGI is > 100 µM.

Question: And the TGI [38]?
Answer: Its TGI is > 100 µM.

Question: What about the TGI [39] of the same compound?
Answer: Its TGI is > 100 µM.

Question: And the TGI [40]?
Answer: The TGI was > 100 µM.

Question: And the TGI [41]?
Answer: Its TGI is > 100 µM.

Question: And the TGI [42]?
Answer: Its TGI is > 100 µM.

Question: What about the TGI [43] of the same compound?
Answer: The TGI was > 100 µM.

Question: And the TGI [44]?
Answer: The TGI was > 100 µM.

Question: And the TGI [45]?
Answer: The TGI was > 100 µM.

Question: What about the TGI [46] of the same compound?
Answer: The TGI was > 100 µM.

Question: What about the TGI [47] of the same compound?
Answer: Its TGI is > 100 µM.

Question: And the TGI [48]?
Answer: Its TGI is 80.4 µM.

Question: And the TGI [49]?
Answer: Its TGI is 62.6 µM.

Question: And the TGI [50]?
Answer: The TGI was > 100 µM.

Question: What about the TGI [51] of the same compound?
Answer: Its TGI is > 100 µM.

Question: And the TGI [52]?
Answer: Its TGI is 96.8 µM.

Question: And the TGI [53]?
Answer: The TGI was > 100 µM.

Question: And the TGI [54]?
Answer: The TGI was > 100 µM.

Question: And the TGI [55]?
Answer: The TGI was > 100 µM.

Question: What about the TGI [56] of the same compound?
Answer: Its TGI is > 100 µM.

Question: What does the source list for `CCCCCc1cc2cc3c(c(O)c2c(=O)[nH]1)C1(CC3)C(O)=c2c(=O)c3c(=O)cc(OC)c(=O)c=3c(=O)c2=C1O` (configuration not stated)?
Answer: TGI [1]: 2.91 µM; TGI [2]: 5.26 µM; TGI [3]: 6.06 µM; TGI [4]: 2.18 µM; TGI [5]: 3.6 µM; TGI [6]: 1.8 µM; TGI [7]: 0.884 µM; TGI [8]: 0.449 µM; TGI [9]: 3.46 µM; TGI [10]: 3.36 µM; TGI [11]: 3.92 µM; TGI [12]: 2.8 µM; TGI [13]: 2.24 µM; TGI [57]: 1.41 µM; TGI [14]: 12.8 µM; TGI [15]: 1.25 µM; TGI [16]: 15.3 µM; TGI [17]: 2.9 µM; TGI [58]: 4.4 µM; TGI [18]: 2.29 µM; TGI [19]: 5.4 µM; TGI [20]: 2.65 µM; TGI [21]: 3.22 µM; TGI [22]: 2.54 µM; TGI [23]: 2.23 µM; TGI [24]: 2.16 µM; TGI [25]: 3.93 µM; TGI [26]: 3.71 µM; TGI [27]: 4.48 µM; TGI [28]: 4.58 µM; TGI [29]: 2.77 µM; TGI [30]: 3.35 µM; TGI [31]: 1.69 µM; TGI [32]: 7.35 µM; TGI [33]: 1.93 µM; TGI [34]: 3.02 µM; TGI [35]: 5.86 µM; TGI [36]: 3.26 µM; TGI [37]: 2.24 µM; TGI [38]: 2.42 µM; TGI [39]: 3.55 µM; TGI [40]: 3.56 µM; TGI [41]: 18.7 µM; TGI [43]: 3.3 µM; TGI [44]: 4.26 µM; TGI [45]: 2.22 µM; TGI [46]: 9.96 µM; TGI [47]: 3.42 µM; TGI [48]: 3.74 µM; TGI [49]: 4.68 µM; TGI [50]: 3.31 µM; TGI [51]: 3.58 µM; TGI [53]: 2.75 µM; TGI [54]: 2.14 µM; TGI [55]: 4.82 µM; TGI [56]: 2.38 µM
